Measurements taken from patent US9765083B2, “Method for the synthesis of irinotecan” (Synbias Pharma AG, priority 2013, dated 2017).

Experiment: solubility of 7-des-ethyl-irinotecan compared with camptothecin and 10-hydroxycamptothecin
Type: physicochemical
Settings: as compared to camptothecin and 10-hydroxycamptothecin; solvent not stated

CC[C@@]1(O)C(=O)OCc2c1cc1n(c2=O)Cc2cc3cc(OC(=O)N4CCC(N5CCCCC5)CC4)ccc3nc2-1 [7-des-ethyl-irinotecan, 10-[4-(1-piperidino)-1-piperidino]carbonyloxycamptothecin]
solubility: significantly better solubility
